Where “and” joins values, the source holds several entries; their conditions need not be identical. Equal values may be shown once. Read-outs that look alike come from different tables or passages of the source.
Experiments:
[1] = patients with type 2 diabetes; 1.7 g metformin per day; cited from earlier work
[2] = system: NQO-1 antioxidant response element (NQO-1 - ARE); test: NQO-1-ARE luciferase reporter HepG2 cell line; format: cell-based, human; details: for NQO-1 - ARE transcription, normalised to positive control (blank = 0%, 10 μM trans-resveratrol = 100%): 5 μM single compound; for NQO-1 - ARE transcription, normalised to positive control (blank = 0%, 10 μM trans-resveratrol = 100%) / NQO-1 - ARE transcription, normalised to positive control: HepG2, 6 hours, n = 3, ± SD; for NQO-1—ARE transcription in HepG2 cells (in words): 5 μM
Method: A pGL4.22[luc2CP/puro] reporter vector containing NQO-1-ARE was transfected into the HepG2 cell line according to the method set forth in Xue et al (Biochem J 443: 213-222, (2012)). Transfected HepG2 cells were selected with puromycin (1 μg/ml). After culture for 3 weeks, puromycin-resistant cells were screened for luciferase activity after treatment with 4 μM sulforaphane for 6 hours. After validation of positive clones by measuring luciferase activity, the NQO-1-ARE stable cell line was expanded in selection media.
(§1) Stable transfectant cell line was incubated with and without test compounds for 6 hours in MEM with 10% fetal calf serum and 2 mM glutamine under an atmosphere of 5% CO2 in air, 100% humidity and 37° C. For the reporter assay, 100 μl Cell Culture Lysis Reagent (CCLR, Promega) was added to cell and shaken gently for 30 minutes. The mixture of cell lysate was centrifuged (12,000 g, 5 minutes, 4° C.) and an aliquot (20 μl) of supernatant used in the reporter assay. The luciferase activity was determined using a Luciferase Assay System (Promega). The luciferase response is given in Relative Light Units (RLU).
(§2) These were produced by transfection of a pGL4.22[luc2CP/puro] reporter vector containing NQO1-ARE or GLO1-ARE into the HepG2 cell line. Transfected HepG2 cells were selected with puromycin (1 μg/ml). After culture for 3 weeks, puromycin-resistant cells were screened for luciferase activity after treatment with 4 μM SFN for 6 h. After validation of positive clones by measuring luciferase activity, the stable cell line was expanded in selection media and thereafter used in studies for screening of bioactive compounds and synergism. Stable transfectant cell lines were incubated with and without bioactive compounds and combination of tRES and HESP (0.625-5.0 μM) for 6 h in MEM medium with 10% fetal calf serum and 2 mM glutamine under an atmosphere of 5% CO2 in air, 100% humidity and 37° C. This incubation period was optimum to judge initial rate of increase in transcriptional response in cells treated with compounds without increase in untreated controls. For the reporter assay, 100 μl Cell Culture Lysis Reagent (CCLR, Promega, Southampton, UK) was added to cell and shaken gently for 30 min. The mixture of cell lysate was centrifuged (12,000 g, 5 min, 4° C.) and an aliquot (20 μl) of supernatant used in the reporter assay. The luciferase activity was determined using a Luciferase Assay System (Promega). The luciferase response is given in Relative Light Units (RLU). Data are corrected for blank response and normalised to the highest effect (100%) achieved with 10 μM tRES. Data of normalised responses (blank=0%, 10 μM tRES=100%) for varied bioactive concentrations are fitted by non-linear regression to a dose-response curve, E=Emax×[Bioactive]^n/(EC50^n+[Bioactive]^n), solving for EC50 and n (logistic regression coefficient—also called the Hill coefficient). Nrf2-dependent transcriptional response was verified by siRNA silencing of Nrf2, as described in Xue et al., Biochem J 443, 213-222 (2012).

[3] = system: glyoxalase 1 antioxidant response element (GLO1-ARE); test: Stable transfectant GLO1-ARE luciferase reporter HepG2 cell line; format: cell-based, human; details: for GLO1-ARE transcription, normalised to positive control (blank = 0%, 10 μM trans-resveratrol = 100%): 5 μM single compound; for GLO1-ARE transcription, normalised to positive control (blank = 0%, 10 μM trans-resveratrol = 100%) / GLO1-ARE transcription, normalised to positive control: 6 hours, n = 3, ± SD; for EC50 / Emax: Homo sapiens; for Emax: 10 μM tRES = 100%
Method: A pGL4.22[luc2CP/puro] reporter vector containing GLO1-ARE was transfected into the HepG2 cell line according to the method set forth in Xue et al. (Biochem. J., 443, 213-222 (2012)). Transfected HepG2 cells were selected with puromycin (1 μg/ml). After culture for 3 weeks, puromycin-resistant cells were screened for luciferase activity after treatment with 4 μM sulforaphane for 6 hours. After validation of positive clones by measuring luciferase activity, the GLO1-ARE stable cell line, R1F3, was expanded in selection media.
as §1, with “line R1F3” for “line”
as §2

ICAM1 mRNA = test: ICAM1 mRNA, focused quantitative mRNA profiling; format: cell-based, human; details: HAECs
[4] = system: oxidised glutathione (GSSG); test: Cellular GSSG content; format: cell-based, human; details: HAECs, BJ fibroblasts and HepG2 cells; 5 μM single compound
[5] = system: matrix metalloproteinase-3 protein (MMP); test: Cellular MMP-3 protein marker; format: cell-based, human; details: BJ fibroblasts; 5 μM
human BJ fibroblasts = test: Cytotoxicity in human BJ fibroblasts in primary culture; format: cell-based; details: for toxicity (cytotoxicity): individually or with 5 μM combination with primary bioactive compound, concentrations ≤20 μM
Method: Primary human aortal endothelial cells (HAEC) were purchased from Lonza (Slough, U.K). HAEC cells were grown in proprietary large vessel endothelial cell basal media supplemented with large vessel endothelial cell growth supplement (containing hydrocortisone, human epidermal growth factor, human fibroblast growth factor with heparin and in 2% (/v/) FBS), 25 μg/ml gentamicin and 50 ng/ml amphotericin B. Human dermal foreskin BJ fibroblasts at cumulative population doubling of 22 were purchased from the European Collection of Animal Cell Cultures (Porton Down, UK). They were cultured in MEM medium with 10% fetal calf serum and 2 mM glutamine under an atmosphere of 5% CO2 in air, 100% humidity and 37° C.

GSH = test: Cellular GSH content; format: cell-based, human; details: HAECs, BJ fibroblasts and HepG2 cells; 5 μM single compound
NQO-1 gene expression = details: WO 2014/095289 Example 4; cited from earlier work
HO-1 gene expression = details: WO 2014/095289 Example 4; cited from earlier work
human hair follicle = details: WO 2014/095289 Example 3; cited from earlier work
HO-1 mRNA = test: HO-1 (HMOX1) mRNA by digital mRNA profiling (NanoString nCounter); format: cell-based; details: human dermal foreskin BJ fibroblasts; 5 μM of each compound; 12 hours; n = 3; ± SD
Method: (§3) Human dermal foreskin BJ fibroblasts at cumulative population doubling of 22 were purchased from the European Collection of Animal Cell Cultures (Porton Down, UK). They were cultured in Eagle's Minimum Essential Medium (MEM) with 10% fetal calf serum and 2 mM glutamine under an atmosphere of 5% CO2 in air, 100% humidity and 37° C.

[6] = HATFF study: total urinary metabolites of tRES and HESP (LC-MS/MS); format: in vivo, human; details: urine
[7] = dietary supplement of 150 mg HESP (Takumi et al.); cited from earlier work
[8] = reviewed in Vang et al. and Parhiz et al.; cited from earlier work
NQO-1 mRNA = NQO-1 mRNA by digital mRNA profiling (NanoString nCounter); format: cell-based; details: human dermal foreskin BJ fibroblasts; 5 μM of each compound; 12 hours; n = 3; ± SD
Method: as §3

[9] = compound alone, HepG2 reporter, 6 h, read-out: EC50 for GLO1-ARE transcriptional response

## CN(C)C(=N)N=C(N)N [metformin]
[1]
  ΔOGIS: +54 mlmin^−1m^−2

## Oc1cc(O)cc(/C=C/c2ccc(O)c(O)c2)c1 [Piceatannol, piceatannol]
[2]
  NQO-1 - ARE transcription, normalised to positive control (blank = 0%, 10 μM trans-resveratrol = 100%): 66.6 ± 2.4%
[3]; HepG2
  GLO1-ARE transcription, normalised to positive control (blank = 0%, 10 μM trans-resveratrol = 100%): 61.3 ± 31.0%

## Oc1ccc(/C=C/c2cc(O)cc(O)c2)cc1 [trans-resveratrol]
ICAM1 mRNA; 5 μM tRES individually, 48 h post-treatment
  ICAM1 mRNA: tended to increased
[2]; 0.625 μM trans-resveratrol, 0 μM hesperetin
  NQO-1 - ARE transcription, normalised to positive control: 1.9 ± 8.6%
[2]; 1.25 μM trans-resveratrol, 0 μM hesperetin
  NQO-1 - ARE transcription, normalised to positive control: 6.4 ± 2.5%
[2]; 2.5 μM trans-resveratrol, 0 μM hesperetin
  NQO-1 - ARE transcription, normalised to positive control: 15.7 ± 6.7%
[2]
  NQO-1 - ARE transcription, normalised to positive control (blank = 0%, 10 μM trans-resveratrol = 100%): 58.0 ± 2.5% and 56.9 ± 1.7%
[2]; 10 μM trans-resveratrol, 0 μM hesperetin (positive control = 100%)
  NQO-1 - ARE transcription, normalised to positive control: 100.0 ± 10.0%
[4]
  cellular level of GSSG: did not change
[5]
  cellular MMP-3 protein: decreases
Human BJ fibroblasts; BJ fibroblasts
  toxicity (cytotoxicity): no toxicity
Human BJ fibroblasts; tRES (5 μM) with 0.625 μM HESP, BJ fibroblasts
  cell number: minor increase
Human BJ fibroblasts; tRES (40 μM) with 5 μM HESP
  viability of BJ cells in vitro: minor decrease
GSH
  cellular level of GSH: did not change
[3]; 0.625 μM trans-resveratrol, 0 μM hesperetin, HepG2
  GLO1-ARE transcription, normalised to positive control: 4.0 ± 2.2%
[3]; 1.25 μM trans-resveratrol, 0 μM hesperetin, HepG2
  GLO1-ARE transcription, normalised to positive control: 19.2 ± 7.6%
[3]; 2.5 μM trans-resveratrol, 0 μM hesperetin, HepG2
  GLO1-ARE transcription, normalised to positive control: 53.8 ± 7.4%
[3]; HepG2
  GLO1-ARE transcription, normalised to positive control (blank = 0%, 10 μM trans-resveratrol = 100%): 67.6 ± 14.5%
[3]; 10 μM trans-resveratrol, 0 μM hesperetin (positive control = 100%), HepG2
  GLO1-ARE transcription, normalised to positive control: 100.0 ± 2.9%
[3]; 0.1-1.0 tRES in the presence of 5 μM HESP
  predicted increase of GLO1-ARE transcriptional response: 3-79 fold
[3]; 0.1-1.0 tRES in the presence of 5 μM HESP, predicted
  increased GLO1-ARE transcriptional response over additive effects: up to 79%
[3]; 0.625-10 μM tRES with 5 μM HESP
  Emax of tRES, GLO1-ARE response: maintaining the Emax
[3]; HepG2, 0.625-10 μM tRES with 5 μM HESP, read-out: EC50 of tRES for GLO1-ARE transcriptional response
  EC50: 1.46 ± 0.1 µM
[3]; HepG2, compound alone
  Emax: 100 ± 8.9%
[3]; [9]
  EC50: 2.52 ± 0.19 µM

## O=C1CC(c2ccc(O)c(O)c2)Oc2cc(O)cc(O)c21 (stereo not drawn) [Eriodictyol, 2-(3,4-Dihydroxyphenyl)-5,7-dihydroxy-4-chromanone]
[2]
  NQO-1—ARE transcription in HepG2 cells (in words): up-regulate
  NQO-1 - ARE transcription, normalised to positive control (blank = 0%, 10 μM trans-resveratrol = 100%): 95.3 ± 14.7%

## O=C1C[C@@H](c2ccc(O)cc2)Oc2cc(O)cc(O)c21 [Naringenin, naringenin, reference compound]
[2]
  NQO-1—ARE transcription in HepG2 cells (in words): does not up-regulate
  NQO-1 - ARE transcription, normalised to positive control (blank = 0%, 10 μM trans-resveratrol = 100%): −2.75 ± 5.24%

## C[S+]([O-])CCCCN=C=S (stereo not drawn) [sulforaphane]
NQO-1 gene expression
  NQO-1 gene expression in human hair follicles: significantly up-regulates
HO-1 gene expression
  HO-1 gene expression in human hair follicles: significantly up-regulates
Human hair follicle
  human hair follicle growth: significantly up-regulates

## COc1cc(/C=C/c2ccc(O)cc2)cc(OC)c1 [Pterostilbene, pterostilbene]
[2]
  NQO-1 - ARE transcription, normalised to positive control (blank = 0%, 10 μM trans-resveratrol = 100%): 41.8 ± 2.7%
[3]; HepG2
  GLO1-ARE transcription, normalised to positive control (blank = 0%, 10 μM trans-resveratrol = 100%): 37.5 ± 18.3%

## COc1ccc(C2CC(=O)c3c(O)cc(O)cc3O2)cc1O (stereo not drawn) [hesperetin, 2,3-Dihydro-5,7-dihydroxy-2-(3-hydroxy-4-methoxyphenyl)-4H-1-benzopyran-4-one]
ICAM1 mRNA; 5 μM HESP individually, 6 h post-treatment
  ICAM1 mRNA: tended to increased
HO-1 mRNA
  HO-1 mRNA (relative mRNA copy numbers as a % of vehicle control): 95.4 ± 3.7 % of vehicle control
[2]
  NQO-1 - ARE transcription, normalised to positive control (blank = 0%, 10 μM trans-resveratrol = 100%): 7.9 ± 0.7%
[4]
  cellular level of GSSG: did not change
[6]
  eriodictyol (demethylated HESP) in study samples: no eriodctyol (demethylated HESP), was detected
[5]
  cellular MMP-3 protein: increase
[7]
  peak plasma concentration of HESP: 6.7 µM
[8]
  safety assessments (tolerability): highly tolerated
Human BJ fibroblasts; BJ fibroblasts
  toxicity (cytotoxicity): no toxicity
Human BJ fibroblasts; HESP (40 μM) with and without 5 μM tRES
  viability of BJ cells in vitro: minor decrease
GSH
  cellular level of GSH: did not change
NQO-1 mRNA
  NQO-1 mRNA (relative mRNA copy numbers as a % of vehicle control): 93.0 ± 3.5 % of vehicle control
[3]; HepG2
  GLO1-ARE transcription, normalised to positive control (blank = 0%, 10 μM trans-resveratrol = 100%): 13.0 ± 1.6%
[3]; HESP alone
  logistic regression coefficient n, GLO1-ARE response: 2.01±0.02
[3]; HepG2, compound alone
  Emax: 24.4 ± 0.1%
[3]; [9]
  EC50: 0.59 ± 0.01 µM
